This note sets out measurements from ChEMBL document CHEMBL4619759, “A DNA Repair Inhibitor Isolated from an Ecuadorian Fungal Endophyte Exhibits Synthetic Lethality in PTEN-Deficient Glioblastoma” (2020).

Molecules are shown by their SMILES. The source made the active and inactive calls. The calls are words filed in the database; no cut-off is given here.

Usually inhibition stands for the share of the control response that was lost under treatment.

Assay [1] concerns U-251. Description: Selective cytotoxicity against PTEN-deficient human U251 cells at 12.5 ug/ml after 48 hrs by CellTiter-Glo luminescent cell viability assay. The class given is functional, cell-based. (In general: In ATP-based viability assays light output follows the ATP content of the culture.)
Assay [2] concerns U-251. Description: Induction of cell cycle arrest in PTEN-deficient human U251 cells assessed as accumulation at G1 phase at 6.25 to 12.5 ug/ml after 4 to 24 hrs by PI staining based flow cytometric analysis. The class given is functional. A general note: In flow cytometry, cells or beads pass a laser one at a time.
The subject of assay [3] is U-251. The assay is described as follows: Inhibition of DSB repair in PTEN-deficient human U251 cells at 12.5 ug/ml by neutral comet assay. The class given is functional, cell-based.
In assay [4] the test system is U-251. Description: Induction of DNA damage in PTEN-deficient human U251 cells assessed as gammaH2AX accumulation at 6.25 to 12.5 ug/ml after 4 to 24 hrs by PI staining based flow cytometric analysis. The assay is classed as functional, cell-based.
A short description of assay [5]: Inhibition of DSB repair in PTEN-deficient human U2OS EJ-DR cells assessed as reduction in homologous recombination activity at 12.5 ug/ml incubated for 24 hrs in presence of DSB inducer by flow cytometric analysis relative to control. The class given is functional.
The nature of assay [6]: Inhibition of DSB repair in PTEN-deficient human U2OS EJ-DR cells assessed as reduction in mutagenic non-homologous end joining activity at 12.5 ug/ml incubated for 24 hrs in presence of DSB inducer by flow cytometric analysis relative to control. The assay is classed as functional.
In assay [7] the test system is U-251. The assay is described as follows: Inhibition of DSB repair in PTEN-deficient 5 Gy IR-induced human U251 cells assessed as increase in comet tail moment at 12.5 ug/ml pretreated followed by irradiation with 5 Gy IR by neutral comet assay. The assay is classed as functional, cell-based.
Assay [8] relates to U-251. The assay is described as follows: Induction of DNA damage in PTEN-deficient human U251 cells assessed as gammaH2AX foci formation at 12.5 ug/ml in presence of 5 Gy IR irradiation measured after 4 to 24 hrs by PI staining based flow cytometric analysis. The class given is functional, cell-based.
For assay [9], the system named is U-251. The assay is described as follows: Induction of DNA damage in PTEN-deficient human U251 cells assessed as accumulation of gammaH2AX positive cells at G1 phase at 12.5 ug/ml in presence of 5 Gy IR irradiation measured after 4 to 24 hrs by PI staining based flow cytometric analysis. The class given is functional, cell-based.
Assay [10] has as its system U-251. The assay is described as follows: Induction of cell cycle arrest in PTEN-deficient human U251 cells assessed as accumulation at G2/M phase at 6.25 to 12.5 ug/ml incubated for 4 hrs followed by irradiation with 5 Gy IR by PI staining based flow cytometric analysis. The class given is functional.
Assay [11] has as its system U-251. The assay is described as follows: Induction of cell cycle arrest in PTEN-proficient human U251 cells assessed as accumulation at G2/M phase at 6.25 to 12.5 ug/ml incubated for 4 hrs followed by irradiation with 5 Gy IR by PI staining based flow cytometric analysis. The assay is classed as functional.
In assay [12] the test system is U-251. The assay is described as follows: Radiosensitizer activity in PTEN-deficient human U251 cells assessed as reduction in cell survival at 6.25 to 12.5 ug/ml in presence of 5 Gy IR irradiation by CellTiter-Glo cell viability assay. The assay is classed as functional, cell-based.
The subject of assay [13] is U-251. Description: Induction of DNA damage in PTEN-deficient human U251 cells assessed as accumulation of gammaH2AX positive cells at G1 phase at 6.25 to 12.5 ug/ml measured after 4 to 24 hrs by PI staining based flow cytometric analysis. The class given is functional, cell-based.
In assay [14] the test system is U-251. Description: Induction of DNA damage in PTEN-deficient human U251 cells assessed as accumulation of gammaH2AX positive cells at S phase at 6.25 to 12.5 ug/ml measured after 4 to 24 hrs by PI staining based flow cytometric analysis. The class given is functional, cell-based.
Assay [15] relates to U-251. The assay is described as follows: Induction of DNA damage in PTEN-deficient human U251 cells assessed as accumulation of gammaH2AX positive cells at G2/M phase at 6.25 to 12.5 ug/ml measured after 4 to 24 hrs by PI staining based flow cytometric analysis. The class given is functional, cell-based.
The test system of assay [16] is U-251. The assay is described as follows: Induction of DNA damage in PTEN-proficient human U251 cells assessed as accumulation of gammaH2AX positive cells at G1 phase at 6.25 to 12.5 ug/ml measured after 4 to 24 hrs by PI staining based flow cytometric analysis. The class given is functional, cell-based.
Assay [17] deals with U-251. Description: Induction of DNA damage in PTEN-proficient human U251 cells assessed as accumulation of gammaH2AX positive cells at S phase at 6.25 to 12.5 ug/ml measured after 4 to 24 hrs by PI staining based flow cytometric analysis. The class given is functional, cell-based.
In assay [18] the test system is U-251. The assay is described as follows: Induction of DNA damage in PTEN-proficient human U251 cells assessed as accumulation of gammaH2AX positive cells at G2/M phase at 6.25 to 12.5 ug/ml measured after 4 to 24 hrs by PI staining based flow cytometric analysis. The class given is functional, cell-based.

With `O=C1Nc2ccccc2-c2ccnc3ccc(O)c1c23`, the result in assay [1], in [2], in assay [4], in assay [8], in assay [9] and in assay [10] was Active. Also, the outcome in [11] and in [12] was Active. Moreover, the inhibition entry in [3] and in [7] was “Active” each time. For the same compound, the inhibition at 12.5 µg/mL in assay [5] worked out at 46%; in assay [6], 48%. In addition, the outcome in assay [13], in assay [14], in [15], in assay [16], in assay [17] and in assay [18] was inactive.
